For the assay, the system named is KYSE 520. In words: Inhibition of cell proliferation, KYSE 520 (CCK-8). The class given is cell-based. The following applies: Homo sapiens, KYSE 520 cells, read-out: Inhibition activity on the proliferation of different cell lines KYSE 520 (IC50). As for the experimental part:
(1) MV-411 cells were cultured in the cell culture medium, and then well-growing cells were selected and inoculated in a 96-well plate at 80 μL/well, with 2×10^4 cells/well. The plate was incubated overnight in a 5% CO2 cell incubator at 37° C.
(2) 10 mM storage solution of each drug was prepared using dimethylsulfoxide (DMSO). The stock solution was diluted in a ratio of 1:3 with DMSO before use, and then the solution was serially diluted in a ratio of 1:3, to obtain 9 gradient concentrations. Each concentration was further diluted with the medium in a ratio of 1:200 (to ensure that the DMSO concentration in the culture system was 0.1%). Two wells were set for each concentration. 20 μL of each compound solution was added to the cell culture well (with a final concentration of 10 μM, 3.3 μM, 1.1 μM . . . ). The plate was gently shaken and mixed. Additionally, 3 negative control wells (only containing cells) and 3 blank control wells (only containing the medium) were included (6 wells were each added with 20 μL of DMSO diluted with the medium in a ratio of 1:200).
(1) After 5 days of cultivation, 10 μL of CCK-8 was added to each well, and then the plate was further cultured for 3 h at 37° C. in a 5% CO2 cell incubator.
(2) The absorbance (OD value) was measured at 450 nm with a multifunctional microplate reader. (3) The data were analyzed using the Dose-response-inhibition equation in GraphPad Prism8 software to obtain the IC50 value.
Using a similar method, the IC50 value (nM) for the inhibitory activity of the compound according to the present invention against different cell lines was obtained, and the results are shown in Table 3 (++++: IC50>5 μM; +++: 1 μM<IC50<5 μM; ++: IC50<1 μM).

Molecules are shown by their SMILES.

Turning to `Cc1ncsc1-c1ccc([C@H](C)NC(=O)[C@@H]2C[C@@H](O)CN2C(=O)[C@@H](NC(=O)CCCCCCCCN2CCN(C(=O)CCC(=O)Nc3cccc(Sc4ncc(N5CCC(C)(N)CC5)nc4N)c3Cl)CC2)C(C)(C)C)cc1` [Compound 999], the IC50 was 1000 to 5000 nM.

(Values after US20240383908A1, “SYNTHESIS AND APPLICATION OF PHOSPHATASE DEGRADER” (HINOVA PHARMACEUTICALS INC., priority 2021, published 2024).)
